Test results from patent publication US9765056B2, “Indole and pyrrole compounds, a process for their preparation and pharmaceutical compositions containing them” (LES LABORATOIRES SERVIER, priority 2013, dated 2017).
Where a name gives a salt, the structure may show the parent alone.

Key:
[1] = test system: RS4;11 leukaemia tumour line; experiment: In vitro cytotoxicity, Microculture Tetrazolium Assay (MTT); assay type: cell-based; settings: Homo sapiens; RS4;11 cells, 48 hours exposure
Experimental: The cytotoxicity studies were carried out on the RS4;11 leukaemia tumour line.
The cells are distributed onto microplates and exposed to the test compounds for 48 hours. The cell viability is then quantified by a colorimetric assay, the Microculture Tetrazolium Assay (Cancer Res., 1987, 47, 939-942).

Bcl-2 protein = Bcl-2 protein (histag-Bcl-2, UniProtKB P10415) (Homo sapiens (Human), UniProt P10415); experiment: Inhibition of Bcl-2 by the fluorescence polarisation technique; assay type: binding; settings: fluorescence polarisation test; method A, or method B where underlined (underlining not visible); read-out: IC50 (nM) Bcl-2 FP
Sequence of Bcl-2 protein (P10415 whole entry): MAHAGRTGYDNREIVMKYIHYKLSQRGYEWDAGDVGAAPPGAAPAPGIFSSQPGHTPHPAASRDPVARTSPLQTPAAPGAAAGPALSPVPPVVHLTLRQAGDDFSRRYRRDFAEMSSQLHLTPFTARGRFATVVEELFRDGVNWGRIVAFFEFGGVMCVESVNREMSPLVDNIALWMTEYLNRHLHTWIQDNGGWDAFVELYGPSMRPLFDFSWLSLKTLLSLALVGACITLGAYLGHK
From the text: Inhibition of Bcl-2 by the fluorescence polarisation technique

Cc1cc(C(=O)N(c2ccccc2)c2ccc(O)cc2)cn1-c1cc(Cl)c(F)cc1C(=O)N1Cc2ccccc2C[C@H]1CN1CCN(C)CC1 [Example 28, 1-(5-Chloro-4-fluoro-2-{[(3S)-3-[(4-methylpiperazin-1-yl)methyl]-3,4-dihydroisoquinolin-2(1H)-yl]carbonyl}phenyl)-N-(4-hydroxyphenyl)-5-methyl-N-phenyl-1H-pyrrole-3-carboxamide] showed an IC50 [1] of 378 nM and an IC50 (Bcl-2 protein) of 8 nM.
Compound Cc1ccc(N(C(=O)c2cn(-c3cc4c(cc3C(=O)N3Cc5ccccc5C[C@H]3CN3CCN(C)CC3)OCO4)c3ccccc23)c2ccc(O)c(Cl)c2)cc1 [Example 63, N-(3-Chloro-4-hydroxyphenyl)-N-(4-methylphenyl)-1-(6-{[(3S)-3-[(4-methylpiperazin-1-yl)methyl]-3,4-dihydroisoquinolin-2(1H)-yl]carbonyl}-1,3-benzodioxol-5-yl)-1H-indole-3-carboxamide hydrochloride] has an IC50 [1] of 1510 nM and an IC50 (Bcl-2 protein) of 168 nM.
Work on Cc1cc(C(=O)N(c2ccccc2)c2ccc(O)cc2)cn1-c1cc(F)ccc1C(=O)N1Cc2ccccc2C[C@H]1CN(C)C [Example 14, 1-(2-{[(3S)-3-[(Dimethylamino)methyl]-3,4-dihydroisoquinolin-2(1H)-yl]carbonyl}-5-fluorophenyl)-N-(4-hydroxyphenyl)-5-methyl-N-phenyl-1H-pyrrole-3-carboxamide] yielded an IC50 [1] of 1270 nM and an IC50 (Bcl-2 protein) of 24.8 nM.
Work on Cc1cc(C(=O)N(c2ccc(O)cc2)c2ccc(Cl)cc2)cn1-c1cc2c(cc1C(=O)N1Cc3ccccc3C[C@H]1CN1CCN(C)CC1)OCO2 [Example 85, N-(4-Chlorophenyl)-N-(4-hydroxyphenyl)-5-methyl-1-(6-{[(3S)-3-[(4-methylpiperazin-1-yl)methyl]-3,4-dihydroisoquinolin-2(1H)-yl]carbonyl}-1,3-benzodioxol-5-yl)-1H-pyrrole-3-carboxamide] yielded an IC50 [1] of 129 nM and an IC50 (Bcl-2 protein) of 3.7 nM.
Work on CN1CCN(C[C@@H]2Cc3ccccc3CN2C(=O)c2ccccc2-n2cc(C(=O)N(c3ccccc3)c3ccc(O)cc3)c3ccccc32)CC1 [Example 155, N-(4-Hydroxyphenyl)-1-{2-[(3S)-3-[(4-methylpiperazin-1-yl)methyl]-1,2,3,4-tetrahydroisoquinoline-2-carbonyl}phenyl]-N-phenyl-1H-indole-3-carboxamide] yielded an IC50 [1] of 246 nM and an IC50 (Bcl-2 protein) of 13.2 nM.
Work on CCCCN(C(=O)c1cn(-c2cc(OC)c(O)cc2C(=O)N2Cc3ccccc3C[C@H]2CN2CCN(C)CC2)c2ccccc12)c1ccccc1 [Example 194, N-Butyl-1-{4-hydroxy-5-methoxy-2-[(3S)-3-[(4-methylpiperazin-1-yl)-methyl]-1,2,3,4-tetrahydroisoquinoline-2-carbonyl]phenyl}-N-phenyl-1H-indole-3-carboxamide dihydrochloride] yielded an IC50 [1] of 534 nM and an IC50 (Bcl-2 protein) of 6.7 nM.
Compound Cc1cc(C(=O)N(c2ccc(O)cc2)c2ccc3[nH]ccc3c2)cn1-c1cc(Br)ccc1C(=O)N1Cc2ccccc2C[C@H]1CN1CCC(F)(F)CC1 [Example 79, 1-(5-Bromo-2-{[(3S)-3-[(4,4-difluoropiperidin-1-yl)methyl]-3,4-dihydroisoquinolin-2(1H)-yl]carbonyl}phenyl)-N-(4-hydroxyphenyl)-N-(1H-indol-5-yl)-5-methyl-1H-pyrrole-3-carboxamide] has an IC50 [1] of 344 nM and an IC50 (Bcl-2 protein) of 85.5 nM.
COc1cc(-n2cc(C(=O)N(c3ccccc3)c3ccc(C)cc3)c3ccccc32)c(C(=O)N2Cc3ccccc3C[C@H]2CN2CCN(C)CC2)cc1O [Example 193, 1-{4-Hydroxy-5-methoxy-2-[(3S)-3-[(4-methylpiperazin-1-yl)methyl]-1,2,3,4-tetrahydroisoquinoline-2-carbonyl]phenyl}-N-(4-methylphenyl)-N-phenyl-1H-indole-3-carboxamide] showed an IC50 [1] of 499 nM and an IC50 (Bcl-2 protein) of 5.6 nM.
Compound CN1CCN(C[C@@H]2Cc3ccccc3CN2C(=O)c2ccc(Cl)cc2-n2cc(C(=O)N(c3ccc(O)cc3)c3ccc4c(ccn4C)c3)c3ccccc32)CC1 [Example 93, 1-(5-Chloro-2-{[(3S)-3-[(4-methylpiperazin-1-yl)methyl]-3,4-dihydroisoquinolin-2(1H)-yl]carbonyl}phenyl)-N-(4-hydroxyphenyl)-N-(1-methyl-1H-indol-5-yl)-1H-indole-3-carboxamide] has an IC50 [1] of 75.4 nM and an IC50 (Bcl-2 protein) of 3.3 nM.
In the case of CN1CCN(C[C@@H]2Cc3ccccc3CN2C(=O)c2cc3c(cc2-n2cc(C(=O)N(c4ccccc4)c4ccc(O)cc4)c4ccccc42)OC(F)(F)O3)CC1 [Example 182, 1-{2,2-Difluoro-6-[(3S)-3-[(4-methylpiperazin-1-yl)methyl]-1,2,3,4-tetrahydroisoquinoline-2-carbonyl]-2H-1,3-benzodioxol-5-yl}-N-(4-hydroxyphenyl)-N-phenyl-1H-indole-3-carboxamide], the IC50 [1] is reported as 1850 nM and the IC50 (Bcl-2 protein) is reported as 111 nM.
CN1CCN(C[C@@H]2Cc3ccccc3CN2C(=O)c2ccc(Br)cc2-n2cc(C(=O)N(c3ccc(O)cc3)c3ccc4c(ccn4C)c3)c3ccccc32)CC1 [Example 69, 1-(5-Bromo-2-{[(3S)-3-[(4-methylpiperazin-1-yl)methyl]-3,4-dihydroisoquinolin-2(1H)-yl]carbonyl}phenyl)-N-(4-hydroxyphenyl)-N-(1-methyl-1H-indol-5-yl)-1H-indole-3-carboxamide hydrochloride] gave an IC50 [1] of 67.6 nM and an IC50 (Bcl-2 protein) of 9 nM.
Work on CC(C)n1ccc2cc(N(C(=O)c3cn(-c4cc5c(cc4C(=O)N4Cc6ccccc6C[C@H]4CN4CCN(C)CC4)OCO5)c4ccccc34)c3ccc(O)cc3)ccc21 [Example 100, N-(4-Hydroxyphenyl)-1-(6-{[(3S)-3-[(4-methylpiperazin-1-yl)methyl]-3,4-dihydroisoquinolin-2(1H)-yl]carbonyl}-1,3-benzodioxol-5-yl)-N-[1-(propan-2-yl)-1H-indol-5-yl]-1H-indole-3-carboxamide] yielded an IC50 [1] of 43.4 nM and an IC50 (Bcl-2 protein) of 6.9 nM.
With COc1cc(-n2cc(C(=O)N(c3ccc(O)cc3)C3CCCCC3)c3ccccc32)c(C(=O)N2Cc3ccccc3C[C@H]2CN2CCN(C)CC2)cc1O [Example 204, N-Cyclohexyl-1-{4-hydroxy-5-methoxy-2-[(3S)-3-[(4-methylpiperazin-1-yl)methyl]-1,2,3,4-tetrahydroisoquinoline-2-carbonyl]phenyl}-N-(4-hydroxyphenyl)-1H-indole-3-carboxamide dihydrochloride] the IC50 [1] was 780 nM and the IC50 (Bcl-2 protein) was 4.7 nM.
With Cc1cc(C(=O)N(c2ccc(O)cc2)c2ccc3c(ccn3C)c2)cn1-c1cc(Cl)ccc1C(=O)N1Cc2ccccc2C[C@H]1CN(C)C [Example 95, 1-(5-Chloro-2-{[(3S)-3-[(dimethylamino)methyl]-3,4-dihydroisoquinolin-2(1H)-yl]carbonyl}phenyl)-N-(4-hydroxyphenyl)-5-methyl-N-(1-methyl-1H-indol-5-yl)-1H-pyrrole-3-carboxamide hydrochloride] the IC50 [1] was 264 nM and the IC50 (Bcl-2 protein) was 6.4 nM.
Work on Cc1cc(C(=O)N(c2ccccc2)c2ccc(O)cc2)cn1-c1cc2c(cc1C(=O)N1Cc3ccccc3C[C@H]1CCN1CCOCC1)OCO2 [Example 120, N-(4-Hydroxyphenyl)-5-methyl-1-(6-{[(3S)-3-[2-(morpholin-4-yl)ethyl]-3,4-dihydroisoquinolin-2(1H)-yl]carbonyl}-1,3-benzodioxol-5-yl)-N-phenyl-1H-pyrrole-3-carboxamide hydrochloride] yielded an IC50 [1] of 367 nM and an IC50 (Bcl-2 protein) of 15 nM.
CN1CCN(C[C@@H]2Cc3ccccc3CN2C(=O)c2cc3c(cc2-n2cc(C(=O)N(c4ccc(O)cc4)c4ccc5[nH]ccc5c4)c4ccccc42)OCO3)CC1 [Example 37, N-(4-Hydroxyphenyl)-N-(1H-indol-5-yl)-1-(6-{[(3S)-3-[(4-methylpiperazin-1-yl)methyl]-3,4-dihydroisoquinolin-2(1H)-yl]carbonyl}-1,3-benzodioxol-5-yl)-1H-indole-3-carboxamide] gave an IC50 [1] of 47.1 nM and an IC50 (Bcl-2 protein) of 3.8 nM.
In the case of Cc1cc(C(=O)N(c2ccc(O)cc2)c2ccc(O)cc2)cn1-c1cc(Br)ccc1C(=O)N1Cc2ccccc2C[C@H]1CN1CCN(C)CC1 [Example 61, 1-(5-Bromo-2-{[(3S)-3-[(4-methylpiperazin-1-yl)methyl]-3,4-dihydroisoquinolin-2(1H)-yl]carbonyl}phenyl)-N,N-bis(4-hydroxyphenyl)-5-methyl-1H-pyrrole-3-carboxamide], the IC50 [1] is reported as 204 nM and the IC50 (Bcl-2 protein) is reported as 7.7 nM.
COc1ccc(C(=O)N2Cc3ccccc3C[C@H]2CN(C)C)c(-n2cc(C(=O)N(c3ccccc3)c3ccc(O)cc3)c3ccccc32)c1 [Example 175, 1-{2-[(3S)-3-[(Dimethylamino)methyl]-1,2,3,4-tetrahydroisoquinoline-2-carbonyl]-5-methoxyphenyl}-N-(4-hydroxyphenyl)-N-phenyl-1H-indole-3-carboxamide] showed an IC50 [1] of 460 nM and an IC50 (Bcl-2 protein) of 25.1 nM.
COc1cc(-n2nc(C(=O)N(c3ccccc3)c3ccccc3)c3ccccc32)c(C(=O)N2Cc3ccccc3C[C@H]2CN)cc1O [Example 135, 1-{2-[(3S)-3-(Aminomethyl)-1,2,3,4-tetrahydroisoquinoline-2-carbonyl]-4-hydroxy-5-methoxyphenyl}-N,N-diphenyl-1H-indazole-3-carboxamide] showed an IC50 [1] of 461 nM and an IC50 (Bcl-2 protein) of 10.4 nM.
COc1ccc(C(=O)N2Cc3ccccc3C[C@H]2CN2CCN(C)CC2)c(-n2cc(C(=O)N(c3ccc(O)cc3)c3ccc4c(ccn4C)c3)c3ccccc32)c1 [Example 205, N-(4-Hydroxyphenyl)-1-{5-methoxy-2-[(3S)-3-[(4-methylpiperazin-1-yl)methyl]-1,2,3,4-tetrahydroisoquinoline-2-carbonyl]phenyl}-N-(1-methyl-1H-indol-5-yl)-1H-indole-3-carboxamide] showed an IC50 [1] of 123 nM and an IC50 (Bcl-2 protein) of 4.3 nM.
